Data on 19 compounds can be found in patent publication US6001849A, “Furopyridine, thienopyridine pyrrolopyridine useful in controlling chemical synaptic transmission” (Abbott Laboratories, priority 1997, dated 1999).

Counter-ions that a name gives are not always drawn.

One assay addresses neuronal nicotinic acetylcholine receptors. Briefly: [3H]-cytisine ligand-receptor binding assay (crude synaptic membranes from whole rat brain). The note with it: Table 1; [3H]-cytisine 1.25 nM, 4° C., 60 min; Ki by Cheng and Prusoff; read-out: [^3 H]-Cyt Binding. Here is the method:
For the purpose of identifying compounds as nicotinic acetylcholinergic agents which are capable of interacting with neuronal nicotinic acetylcholine receptors in the brain, a ligand-receptor binding assay was carried out as the initial screen. Compounds of the present invention were effective at interacting with neuronal nicotinic acetylcholine receptors as assayed for their ability to displace radioligand from neuronal nicotinic acetylcholine receptors labeled with [^3 H]-cytisine ([^3 H]-CYT).
A. Protocol For Determination of Nicotinic Acetylcholine Receptor Binding Potencies of Ligands
Binding of [^3 H]-CYT to nicotinic acetylcholine receptors was accomplished using crude synaptic membrane preparations from whole rat brain (Pabreza et al., Molecular Pharmacol., 1990, 39:9). Washed membranes were stored at -80° C. prior to use. Frozen aliquots were slowly thawed and resuspended in 20 volumes of buffer (containing: 120 mM NaCl, 5 mM KCl, 2 mM MgCl2, 2 mM CaCl2 and 50 mM Tris-Cl, pH 7.4 @4° C.). After centrifuging at 20,000×g for 15 minutes, the pellets were resuspended in 30 volumes of buffer. Homogenate (containing 125-150 μg protein) was added to triplicate tubes containing concentrations of test compound and [^3 H]-CYT (1.25 nM) in a final volume of 500 μL. Samples were incubated for 60 minutes at 4° C., then rapidly filtered through Whatman GF/B filters presoaked in 0.5% polyethylimine using 3×4 mL of ice-cold buffer. The filters were counted in 4 mL of Ecolume® (ICN). Nonspecific binding was determined in the presence of 10 μM (-)-nicotine and values were expressed as a percentage of total binding.
For `Cc1ccc2oc([C@@H]3CCCN3)cc2n1` [Example 5, 5-methyl-2-(2-(S)-pyrrolidinyl)furo[3,2-b]pyridine dihydrochloride], the Ki was found to be 355 nM.
On the same count and under the same terms, the figure for `Clc1cnc2cc([C@@H]3CCCN3)oc2c1` [Example 7, 6-chloro-2-(2-(S)-pyrrolidinyl)-furo[3,2-b]pyridine dihydrochloride] is 878 nM; for `CN1CCC[C@H]1c1cc2ccncc2o1` [Example 10, 2-(1-methyl-2-(S)-pyrrolidinyl)furo[2,3-c]pyridine dihydrochloride] it is 207 nM.
`Clc1ccc2oc([C@@H]3CCCN3)cc2n1` [Example 11, 5-chloro-2-(2-(S)-pyrrolidinyl)-furo[3,2-b]pyridine hydrochloride]: the Ki is 58 nM.
On the same count and under the same terms, the result for `Clc1cnc2oc([C@@H]3CCCN3)cc2c1` [Example 13, 5-chloro-2-(2-(S)-pyrrolidinyl)-furo[2,3-b]pyridine hydrochloride] reads 4440 nM; that for `CN1CCC[C@H]1c1cc2cc(Cl)cnc2o1` [Example 14, 5-chloro-2-(1-methyl-2-(S)-pyrrolidinyl)-furo[2,3-b]pyridinedihydrochloride], 181 nM.
Take `c1cc2cc(C34CCCN3CCC4)oc2cn1` [Example 17, 2-(Hexahydro-1H-7a-pyrrolizinyl)furo[2,3-c]pyridine dihydrochloride]: the Ki was found to be 88 nM.
Turning to `c1cnc2cc([C@@H]3CC[C@H]4CCCN43)oc2c1` [Example 19, exo-2-(Hexahydro-1H-3-(S)-pyrrolizinyl)furo[3,2-b]pyridine dihydrochloride], the Ki amounted to 3950 nM.
Consider `c1cnc2cc([C@H]3CC[C@@H]4CCCN43)oc2c1` [Example 20, exo-2-(Hexahydro-1H-3-(R)-pyrrolizinyl)furo[3,2-b]pyridine dihydrochloride], for which the Ki was determined as 397 nM.
Still for that read-out and setting: the figure for `c1cnc2cc(CN3CCCC3)oc2c1` [Example 22, 1-Pyrrolidinylmethyl-(2-furo[3,2-b]pyridine)] is 113 nM; for `Clc1ccc2oc(C34CCCN3CCC4)cc2n1` [Example 23, 5-Chloro-2-(hexahydro-1H-7a-pyrrolizinyl)furo[3,2-b]pyridinehydrochloride] it is 0.62 nM; for `Clc1cc2oc([C@@H]3CCCN3)cc2nc1Cl` [Example 25, 5,6-Dichloro-2-(2-(S)-pyrrolidinyl)furo [3,2-b]pyridine hydrochloride] it is 103 nM.
On to `Cc1ccc2sc(C34CCCN3CCC4)cc2n1` [Example 27, dihydrochloride], for which the Ki was determined as 27 nM.
In the case of `Cc1ccc2oc([C@H]3CCCN3C)cc2n1` [Example 30, 5-methyl-2-(1-methyl-2-(R)-pyrrolidinyl)-furo[3,2-b]pyridinedihydrochloride], the Ki worked out at 101 nM.
In the case of `CN1CCC[C@@H]1c1cc2nc(Cl)ccc2o1` [Example 32, 5-chloro-2-(1-methyl-2-(R)-pyrrolidinyl)-furo[3,2-b]pyridinehydrochloride], the Ki was determined as 54 nM.
As for `c1cnc2oc([C@@H]3CCCN3)cc2c1` [Example 36, 2-(2-(S)-pyrrolidinyl)furo[2,3-b]pyridine hydrochloride], the Ki stood at 611 nM.

The assay is the same for the next values; noted with them: Table 2; [3H]-cytisine binding; read-out: Binding.
For “5-chloro-2-(1-methyl-2-(S)-pyrrolidinyl)-6-(3-pyridyl)furo[3,2-b]pyridine hydrochloride [Example 59]”, the Ki came to 672 nM.
Same read-out and setting: the figure for `Clc1ccc2oc([C@H]3C[C@@H]4CC[C@H]3N4)cc2n1` (relative stereo) [Example 135, (±)-2-(7-aza-2-exo-bicyclo[2.2.1]heptyl)-5-chlorofuro[3,2-b]pyridine hydrochloride] is 3.2 nM; for `Fc1ccc2oc([C@H]3C[C@@H]4CC[C@H]3N4)cc2n1` (relative stereo) [Example 136, (±)-2-(7-aza-2-exo-bicyclo[2.2.1]heptyl)-5-fluorofuro[3,2-b]pyridine hydrochloride] it is 2.4 nM.

Still in this assay, the particulars now being: preferred compounds.
Regarding `Clc1ccc2oc(C34CCCN3CCC4)cc2n1` [Example 23, 5-Chloro-2-(hexahydro-1H-7a-pyrrolizinyl)furo[3,2-b]pyridinehydrochloride], the “binding to the nicotinic acetylcholine receptor (in words)” value is “most potent binders”.
